Laboratory results reported in ChEMBL document CHEMBL4387740, “Discovery of ABT-957: 1-Benzyl-5-oxopyrrolidine-2-carboxamides as selective calpain inhibitors with enhanced metabolic stability” (Bioorg Med Chem Lett, 2019).
One block for each compound: values may come before it. Calls of active or inactive are those of the source. No cut-off for these calls is given here.

Legend:
[1] = target: T1, Calpain-1 catalytic subunit (Homo sapiens, UniProt P07384); test: Inhibition of Cal1 (unknown origin)
T1 sequence (P07384 whole entry): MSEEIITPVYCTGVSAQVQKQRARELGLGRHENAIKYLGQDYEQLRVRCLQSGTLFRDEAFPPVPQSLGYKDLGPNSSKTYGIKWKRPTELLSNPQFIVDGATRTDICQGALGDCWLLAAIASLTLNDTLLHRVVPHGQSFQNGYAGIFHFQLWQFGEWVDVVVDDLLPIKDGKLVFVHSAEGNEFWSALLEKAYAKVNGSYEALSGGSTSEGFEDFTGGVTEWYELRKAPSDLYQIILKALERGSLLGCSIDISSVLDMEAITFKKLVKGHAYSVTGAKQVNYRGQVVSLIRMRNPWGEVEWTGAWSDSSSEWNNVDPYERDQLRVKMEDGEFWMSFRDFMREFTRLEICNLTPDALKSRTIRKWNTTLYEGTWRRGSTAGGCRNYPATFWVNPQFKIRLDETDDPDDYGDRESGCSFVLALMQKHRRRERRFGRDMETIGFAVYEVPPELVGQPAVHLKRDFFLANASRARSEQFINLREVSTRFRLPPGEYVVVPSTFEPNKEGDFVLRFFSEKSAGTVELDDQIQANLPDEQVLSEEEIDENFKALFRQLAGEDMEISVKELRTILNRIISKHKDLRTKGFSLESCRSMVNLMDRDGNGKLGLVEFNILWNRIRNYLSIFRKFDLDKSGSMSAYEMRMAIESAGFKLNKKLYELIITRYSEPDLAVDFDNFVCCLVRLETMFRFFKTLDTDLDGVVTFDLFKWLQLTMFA

Homo sapiens [2] = species on record: Homo sapiens; test: Selectivity ratio, ratio of Ki for CatB (unknown origin) to Ki for Cal1 (unknown origin)
Homo sapiens [3] = species on record: Homo sapiens; test: Selectivity ratio, ratio of Ki for CatK (unknown origin) to Ki for Cal1 (unknown origin)
Homo sapiens [4] = species on record: Homo sapiens; test: Selectivity ratio, ratio of Ki for CatL (unknown origin) to Ki for Cal1 (unknown origin)
[5] = Selectivity ratio, ratio of Ki for CatS (unknown origin) to Ki for Cal1 (unknown origin); details: Homo sapiens
[6] = Oral bioavailability in rat; type: ADME, organism-based; details: in vivo
[7] = Intrinsic clearance in cynomolgus monkey liver cytosol; type: ADME, subcellular, Macaca fascicularis; details: read-out: CLH
[8] = Intrinsic clearance in human liver cytosol; type: ADME, subcellular; details: read-out: CLH
[9] = Intrinsic clearance in human liver microsomes; type: ADME, Microsome; details: read-out: CLH
[10] = Intrinsic clearance in rat liver microsomes; type: ADME, Microsome; details: read-out: CLH
Hippocampus [11] = test: Inhibition of NMDA-induced spectrin degradation in rat hippocampal slices; type: functional, tissue-based
Hippocampus [12] = test: Inhibition of amyloid beta oligomer-induced reduction of synaptic transmission in rat hippocampal slices assessed as increase in glutamatergic synaptic strength at 100 nM; type: functional, tissue-based
[13] = Apparent permeability in human Caco2 cells; type: ADME, cell-based; details: Caco-2, read-out: permeability
P-gp (ABCB1) = P-gp (ABCB1) (Homo sapiens, UniProt P08183); test: Substrate activity at P-gp (unknown origin) expressed in MDCK2 cells assessed as efflux ratio of permeability across basolateral to apical over apical to basolateral side; type: ADME, cell-based; details: MDCK-MDR1
Sequence of P-gp (ABCB1) (P08183 whole entry): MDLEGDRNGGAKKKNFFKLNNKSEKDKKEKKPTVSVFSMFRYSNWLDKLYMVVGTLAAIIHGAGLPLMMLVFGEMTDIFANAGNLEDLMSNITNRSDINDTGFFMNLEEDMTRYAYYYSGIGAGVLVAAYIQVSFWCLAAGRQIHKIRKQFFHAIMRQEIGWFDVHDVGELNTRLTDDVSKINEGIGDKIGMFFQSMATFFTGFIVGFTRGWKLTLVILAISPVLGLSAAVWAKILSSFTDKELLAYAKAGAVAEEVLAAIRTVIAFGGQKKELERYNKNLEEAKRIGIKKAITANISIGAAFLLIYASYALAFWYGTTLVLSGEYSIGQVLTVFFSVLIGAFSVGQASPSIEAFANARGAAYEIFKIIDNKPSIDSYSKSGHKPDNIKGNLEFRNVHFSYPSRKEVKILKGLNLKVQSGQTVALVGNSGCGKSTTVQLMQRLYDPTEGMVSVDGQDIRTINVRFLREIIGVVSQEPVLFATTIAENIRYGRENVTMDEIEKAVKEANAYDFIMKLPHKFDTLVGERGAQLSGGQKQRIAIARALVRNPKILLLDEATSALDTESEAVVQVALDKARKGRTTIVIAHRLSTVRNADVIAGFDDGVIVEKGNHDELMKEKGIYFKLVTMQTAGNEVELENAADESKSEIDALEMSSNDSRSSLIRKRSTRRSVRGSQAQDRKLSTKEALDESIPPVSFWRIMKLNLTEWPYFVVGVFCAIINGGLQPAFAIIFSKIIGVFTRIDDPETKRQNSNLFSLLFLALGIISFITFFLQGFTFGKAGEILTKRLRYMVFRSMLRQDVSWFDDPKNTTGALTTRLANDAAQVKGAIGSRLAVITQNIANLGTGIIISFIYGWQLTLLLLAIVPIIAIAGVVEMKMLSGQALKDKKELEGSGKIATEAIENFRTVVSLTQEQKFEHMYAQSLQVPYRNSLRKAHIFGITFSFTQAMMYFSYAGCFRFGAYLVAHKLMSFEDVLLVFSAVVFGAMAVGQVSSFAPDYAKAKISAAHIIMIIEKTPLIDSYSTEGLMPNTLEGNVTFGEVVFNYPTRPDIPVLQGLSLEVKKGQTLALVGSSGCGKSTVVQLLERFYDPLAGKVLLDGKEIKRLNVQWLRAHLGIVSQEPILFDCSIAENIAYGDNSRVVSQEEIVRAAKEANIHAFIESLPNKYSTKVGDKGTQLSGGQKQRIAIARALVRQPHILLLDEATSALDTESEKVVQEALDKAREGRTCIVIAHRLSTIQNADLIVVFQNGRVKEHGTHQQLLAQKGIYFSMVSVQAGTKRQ

BCRP (ABCG2) = target: T2, BCRP (ABCG2) (Homo sapiens, UniProt Q9UNQ0); test: Substrate activity at BCRP (unknown origin) expressed in MDCK2 cells assessed as efflux ratio of permeability across basolateral to apical over apical to basolateral side; type: ADME, cell-based
T2 sequence (Q9UNQ0 whole entry): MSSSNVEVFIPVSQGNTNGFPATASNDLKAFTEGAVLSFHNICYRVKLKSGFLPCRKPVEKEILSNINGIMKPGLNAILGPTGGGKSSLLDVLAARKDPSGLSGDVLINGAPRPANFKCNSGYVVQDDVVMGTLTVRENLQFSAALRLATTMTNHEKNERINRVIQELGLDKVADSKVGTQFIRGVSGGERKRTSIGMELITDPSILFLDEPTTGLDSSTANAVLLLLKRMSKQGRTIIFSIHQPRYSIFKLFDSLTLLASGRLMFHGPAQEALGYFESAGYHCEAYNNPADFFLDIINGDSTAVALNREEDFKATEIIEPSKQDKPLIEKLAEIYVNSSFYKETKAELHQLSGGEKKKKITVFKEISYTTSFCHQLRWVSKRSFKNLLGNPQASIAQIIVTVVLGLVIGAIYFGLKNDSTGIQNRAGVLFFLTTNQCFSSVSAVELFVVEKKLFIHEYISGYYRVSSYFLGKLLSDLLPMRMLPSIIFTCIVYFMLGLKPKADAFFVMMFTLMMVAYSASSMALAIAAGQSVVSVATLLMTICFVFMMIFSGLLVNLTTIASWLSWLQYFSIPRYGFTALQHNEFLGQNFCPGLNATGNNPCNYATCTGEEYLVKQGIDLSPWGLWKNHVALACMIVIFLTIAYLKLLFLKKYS

[14] = Fraction unbound in human plasma; type: ADME, cell-free
[15] = Metabolic stability in rat liver microsomes; type: ADME, Microsome
[16] = Metabolic stability in dog liver microsomes; type: ADME, Canis lupus familiaris, Microsome
[17] = Metabolic stability in cynomolgus monkey liver microsomes; type: ADME, Macaca fascicularis, Microsome
[18] = Metabolic stability in human liver microsomes; type: ADME, Microsome
[19] = Metabolic stability in rat hepatocytes; type: ADME, cell-based, Hepatocyte
[20] = Metabolic stability in dog hepatocytes; type: ADME, cell-based, Canis lupus familiaris, Hepatocyte
[21] = Metabolic stability in cynomolgus monkey hepatocytes; type: ADME, cell-based, Macaca fascicularis, Hepatocyte
[22] = Metabolic stability in human hepatocytes; type: ADME, cell-based, Hepatocyte
[23] = Metabolic stability in cynomolgus monkey liver cytosol assessed as hydroxyamide metabolite formation; type: ADME, subcellular, Macaca fascicularis
[24] = Metabolic stability in human liver cytosol assessed as hydroxyamide metabolite formation; type: ADME, subcellular
[25] = Elimination half life in CD-1 mouse at 2 mg/kg, iv; type: ADME, organism-based; details: in vivo, read-out: beta t1/2 (converted)
[26] = Elimination half life in Sprague-Dawley rat at 2 mg/kg, iv; type: ADME, organism-based; details: in vivo, read-out: beta t1/2 (converted)
[27] = Elimination half life in Beagle dog at 1 mg/kg, iv; type: ADME, organism-based, Canis lupus familiaris; details: in vivo, read-out: beta t1/2 (converted)
[28] = Elimination half life in cynomolgus monkey at 1 mg/kg, iv; type: ADME, organism-based, Macaca fascicularis; details: in vivo, read-out: beta t1/2 (converted)
[29] = AUC (0 to infinity) in CD-1 mouse at 2 mg/kg, iv; type: ADME, organism-based; set-up: dose 2 mg/kg, route intravenous, time infinity; details: in vivo
[30] = AUC (0 to infinity) in Sprague-Dawley rat at 2 mg/kg, iv; type: ADME, organism-based; set-up: dose 2 mg/kg, time infinity, route intravenous; details: in vivo
[31] = AUC (0 to infinity) in Beagle dog at 1 mg/kg, iv; type: ADME, organism-based, Canis lupus familiaris; set-up: dose 1 mg/kg, time infinity, route intravenous; details: in vivo
[32] = AUC (0 to infinity) in cynomolgus monkey at 1 mg/kg, iv; type: ADME, organism-based, Macaca fascicularis; set-up: dose 1 mg/kg, time infinity, route intravenous; details: in vivo
[33] = Plasma clearance in CD-1 mouse at 2 mg/kg, iv; type: ADME, organism-based
[34] = Plasma clearance in Sprague-Dawley rat at 2 mg/kg, iv; type: ADME, organism-based
[35] = Plasma clearance in Beagle dog at 1 mg/kg, iv; type: ADME, organism-based, Canis lupus familiaris
[36] = Plasma clearance in cynomolgus monkey at 1 mg/kg, iv; type: ADME, organism-based, Macaca fascicularis
[37] = Volume of distribution at steady state in CD-1 mouse at 2 mg/kg, iv; type: ADME, organism-based; details: in vivo, read-out: Vdss
[38] = Volume of distribution at steady state in Sprague-Dawley rat at 2 mg/kg, iv; type: ADME, organism-based; details: in vivo, read-out: Vdss
[39] = Volume of distribution at steady state in Beagle dog at 1 mg/kg, iv; type: ADME, organism-based, Canis lupus familiaris; details: in vivo, read-out: Vdss
[40] = Volume of distribution at steady state in cynomolgus monkey at 1 mg/kg, iv; type: ADME, organism-based, Macaca fascicularis; details: in vivo, read-out: Vdss
[41] = Elimination half life in CD-1 mouse at 2 mg/kg, po; type: ADME, organism-based; details: in vivo, read-out: beta t1/2 (converted)
[42] = Elimination half life in Sprague-Dawley rat at 2 mg/kg, po; type: ADME, organism-based; details: in vivo, read-out: beta t1/2 (converted)
[43] = Elimination half life in Beagle dog at 1 mg/kg, po; type: ADME, organism-based, Canis lupus familiaris; details: in vivo, read-out: beta t1/2 (converted)
[44] = Elimination half life in cynomolgus monkey at 3 mg/kg, po; type: ADME, organism-based, Macaca fascicularis; details: in vivo, read-out: beta t1/2 (converted)
[45] = Cmax in CD-1 mouse at 2 mg/kg, po; type: ADME, organism-based; set-up: dose 2 mg/kg, route oral; details: in vivo
[46] = Cmax in Sprague-Dawley rat at 2 mg/kg, po; type: ADME, organism-based; set-up: dose 2 mg/kg, route oral; details: in vivo
[47] = Cmax in Beagle dog at 1 mg/kg, po; type: ADME, organism-based, Canis lupus familiaris; set-up: dose 1 mg/kg, route oral; details: in vivo
[48] = Cmax in cynomolgus monkey at 3 mg/kg, po; type: ADME, organism-based, Macaca fascicularis; set-up: dose 3 mg/kg, route oral; details: in vivo
[49] = AUC (0 to infinity) in CD-1 mouse at 2 mg/kg, po; type: ADME, organism-based; set-up: dose 2 mg/kg, route oral, time infinity; details: in vivo
[50] = AUC (0 to infinity) in Sprague-Dawley rat at 2 mg/kg, po; type: ADME, organism-based; set-up: dose 2 mg/kg, time infinity, route oral; details: in vivo
[51] = AUC (0 to infinity) in Beagle dog at 1 mg/kg, po; type: ADME, organism-based, Canis lupus familiaris; set-up: dose 1 mg/kg, time infinity, route oral; details: in vivo
[52] = AUC (0 to infinity) in cynomolgus monkey at 3 mg/kg, po; type: ADME, organism-based, Macaca fascicularis; set-up: dose 3 mg/kg, time infinity, route oral; details: in vivo
[53] = Oral bioavailability in CD-1 mouse at 2 mg/kg; type: ADME, organism-based; details: in vivo
[54] = Oral bioavailability in Sprague-Dawley rat at 2 mg/kg; type: ADME, organism-based; details: in vivo
[55] = Oral bioavailability in Beagle dog at 1 mg/kg; type: ADME, organism-based, Canis lupus familiaris; details: in vivo
[56] = Oral bioavailability in cynomolgus monkey at 3 mg/kg; type: ADME, organism-based, Macaca fascicularis; details: in vivo
[57] = Intrinsic clearance in rat liver microsomes; details: read-out: CLH

Ki [1]: 39 nM | Selectivity ratio (Homo sapiens [2]): 23 | Selectivity ratio (Homo sapiens [3]): 22 | Selectivity ratio (Homo sapiens [4]): 15 | Selectivity ratio [5]: 103 | bioavailability [6]: 45% | microsomal CLint [7]: 185 µL/min/mg | microsomal CLint [8]: > 70 µL/min/mg | microsomal CLint [9]: 27 µL/min/mg | microsomal CLint [10]: < 23 µL/min/mg
SMILES: NC(=O)C(=O)C(Cc1ccccc1)NC(=O)[C@H]1CCC(=O)N1Cc1ccccc1 (mixture of isomers)

Ki [1]: 130 nM | Selectivity ratio (Homo sapiens [2]): 42 | Selectivity ratio (Homo sapiens [3]): 74 | Selectivity ratio (Homo sapiens [4]): 42 | Selectivity ratio [5]: > 100 | microsomal CLint [8]: < 1 µL/min/mg | IC50 (Hippocampus [11]): 385 nM | microsomal CLint [9]: 28 µL/min/mg | microsomal CLint [10]: < 23 µL/min/mg | Papp [13]: 9.4 ×10⁻⁶ cm/s | efflux ratio (P-gp (ABCB1)): 10.5 | efflux ratio (BCRP (ABCG2)): 0.9 | fraction unbound [14]: 0.3 | Stability [15]: Stable | Stability [16]: Stable | Stability [17]: Stable | Stability [18]: Stable | Stability [19]: Stable | Stability [20]: Stable | Stability [21]: Stable | Stability [22]: Stable | Stability [23]: Stable | Stability [24]: Stable | half-life [25]: 6 h | half-life [26]: 6.6 h | half-life [27]: 1.7 h | half-life [28]: 2.3 h | AUC(0-inf) [29]: 15400 ng·h/mL | AUC(0-inf) [30]: 1930 ng·h/mL | AUC(0-inf) [31]: 1820 ng·h/mL | AUC(0-inf) [32]: 510 ng·h/mL | clearance [33]: 2.17 mL/min/kg | clearance [34]: 17.3 mL/min/kg | clearance [35]: 10.2 mL/min/kg | clearance [36]: 33 mL/min/kg | Vd [37]: 1 L/kg | Vd [38]: 3.4 L/kg | Vd [39]: 0.6 L/kg | Vd [40]: 1.8 L/kg | half-life [41]: 5 h | half-life [42]: 5.1 h | half-life [43]: 4.8 h | half-life [44]: 1.3 h | Cmax [45]: 2300 ng/mL | Cmax [46]: 530 ng/mL | Cmax [47]: 980 ng/mL | Cmax [48]: 98 ng/mL | AUC(0-inf) [49]: 14500 ng·h/mL | AUC(0-inf) [50]: 1910 ng·h/mL | AUC(0-inf) [51]: 1510 ng·h/mL | AUC(0-inf) [52]: 220 ng·h/mL | bioavailability [53]: 93.5% | bioavailability [54]: 99.6% | bioavailability [55]: 83.1% | bioavailability [56]: 14.3% | microsomal CLint [57]: < 23 µL/min/mg
SMILES: O=C(NC1CC1)C(=O)C(Cc1ccccc1)NC(=O)[C@H]1CCC(=O)N1Cc1ccccc1 (some centres not stated)
inhibition (Hippocampus [12]): Active
